Values quoted from earlier work in patent US12455270B2, “Mesh for dissolution test” (Shionogi & Co., Ltd., priority 2019, dated 2025).

Assays:
[1] = input parameter of GastroPlus simulation
[2] = input parameter of GastroPlus simulation; remark: listed apart in the source

| logP [1] | CL [2] [L/h] | Plasma Fup [2] [%] | Vc [2] [L/kg] | k12 [2] [h⁻¹] | k21 [2] [h⁻¹] | SMILES |
| --- | --- | --- | --- | --- | --- | --- |
| 1.8 | 0.9087 | 28.8 | 0.6971 | 0.165 | – | NC(=O)N1c2ccccc2C=Cc2ccccc21 [Carbamazepine] |
| 4.21 | 28.558 | 2.1 | 1.0902 | 0.1955 | 0.07268 | Cc1ccc(-c2cc(C(F)(F)F)nn2-c2ccc(S(N)(=O)=O)cc2)cc1 [Celecoxib] |
